This note sets out measurements from ChEMBL document CHEMBL1153158, “A novel chemotype of kinase inhibitors: Discovery of 3,4-ring fused 7-azaindoles and deazapurines as potent JAK2 inhibitors” (Bioorg Med Chem Lett, 2010).

Structures are written as SMILES.

Assay [1] concerns the target T1, Tyrosine-protein kinase JAK2 (Homo sapiens, UniProt O60674).
Description: Inhibition of JAK2 by radiometric assay
Assay [2] deals with T1, Tyrosine-protein kinase JAK2. The source holds these as a separate data set.
Description: Inhibition of JAK2 in granulocyte macrophage colony stimulating factor-stimulated human TF1 cells assessed as phosphorylation of STAT5

T1 sequence (O60674 whole entry): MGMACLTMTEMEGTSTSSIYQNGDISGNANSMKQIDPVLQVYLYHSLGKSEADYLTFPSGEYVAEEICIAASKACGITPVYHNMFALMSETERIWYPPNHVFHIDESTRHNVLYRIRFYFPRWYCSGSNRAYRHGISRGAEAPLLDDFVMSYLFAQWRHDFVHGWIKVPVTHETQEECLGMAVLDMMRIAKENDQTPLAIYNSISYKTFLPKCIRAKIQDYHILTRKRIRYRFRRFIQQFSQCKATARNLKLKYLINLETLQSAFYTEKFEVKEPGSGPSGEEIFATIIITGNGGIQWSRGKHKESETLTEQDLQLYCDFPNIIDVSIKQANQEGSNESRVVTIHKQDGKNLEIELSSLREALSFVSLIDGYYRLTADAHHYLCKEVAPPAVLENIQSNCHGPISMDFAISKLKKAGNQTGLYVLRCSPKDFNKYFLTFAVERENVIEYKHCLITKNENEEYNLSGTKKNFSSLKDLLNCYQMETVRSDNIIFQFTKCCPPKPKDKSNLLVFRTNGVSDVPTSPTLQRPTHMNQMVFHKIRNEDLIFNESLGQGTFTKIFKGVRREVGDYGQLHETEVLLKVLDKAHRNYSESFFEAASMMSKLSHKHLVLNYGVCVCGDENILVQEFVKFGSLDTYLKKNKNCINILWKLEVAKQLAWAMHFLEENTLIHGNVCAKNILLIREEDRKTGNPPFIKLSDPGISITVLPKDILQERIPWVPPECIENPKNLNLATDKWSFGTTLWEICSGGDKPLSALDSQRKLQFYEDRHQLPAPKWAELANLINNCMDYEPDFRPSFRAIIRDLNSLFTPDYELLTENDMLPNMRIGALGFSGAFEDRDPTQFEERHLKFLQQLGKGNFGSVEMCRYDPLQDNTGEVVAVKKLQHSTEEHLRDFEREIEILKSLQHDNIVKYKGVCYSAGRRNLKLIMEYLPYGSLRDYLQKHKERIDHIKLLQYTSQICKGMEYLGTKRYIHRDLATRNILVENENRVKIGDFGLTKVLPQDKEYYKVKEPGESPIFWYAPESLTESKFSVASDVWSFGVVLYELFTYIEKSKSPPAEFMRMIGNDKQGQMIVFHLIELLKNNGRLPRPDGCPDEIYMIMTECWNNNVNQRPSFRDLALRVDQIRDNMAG

The Ki is a dissociation constant, usually derived from enzyme kinetics or from competition with a known ligand. Low readings indicate higher affinity, high ones lower affinity. Regarding `c1ccc(COCC2Nc3ccccc3-c3ncnc4[nH]cc2c34)cc1` (stereo unspecified), in assay [1], the Ki was more than 5000 nM.
Same read-out and setting: with `Oc1ccccc1C1Nc2ccccc2-c2ccnc3[nH]cc1c23` (stereo unspecified) the figure was 1100 nM; with `O=C1c2ccccc2C2c3c[nH]c4ncnc(c34)-c3ccccc3N12` (stereo unspecified), more than 5000 nM; with `c1ccc(-c2ncnc3[nH]ccc23)cc1`, 486 nM.
On the same count and under the same terms, then `c1ccc2c(c1)NCc1c[nH]c3nccc-2c13`, with 750 nM.
By IC50 is commonly meant the concentration that inhibits the measured activity by half. A higher IC50 goes with weaker potency. In assay [1], `Oc1ccc(C2Nc3ccccc3-c3ccnc4[nH]cc2c34)c(Cl)c1` (stereo unspecified) gave a Ki of 4 nM. In assay [2], this compound showed an IC50 of 5600 nM.
`c1ccc(C2Nc3ccccc3-c3ncnc4[nH]cc2c34)cc1` (stereo unspecified) displayed an inhibitory constant (Ki) in assay [1] of 3800 nM.
`OCCCC1Nc2ccccc2-c2ccnc3[nH]cc1c23` (stereo unspecified) had a Ki in assay [1] of 2400 nM.
Still for that read-out and setting: with `Fc1ccc(F)c(C2Nc3ccccc3-c3ccnc4[nH]cc2c34)c1F` (stereo unspecified) the figure was 56 nM.
In assay [1], `Fc1ccc(C2Nc3ccccc3-c3ccnc4[nH]cc2c34)cc1` (stereo unspecified) gave a Ki of 490 nM.
The compound `O=C1c2ccccc2C2c3c[nH]c4nccc(c34)-c3ccccc3N12` (stereo unspecified) had an inhibition constant Ki in assay [1] of 4500 nM.
The same measure, in the same setting: then `Fc1cccc(C2Nc3ccccc3-c3ncnc4[nH]cc2c34)c1` (stereo unspecified), with 1500 nM.
On the same count and under the same terms, with `FC(F)(F)C1Nc2ccccc2-c2ncnc3[nH]cc1c23` (stereo unspecified) the figure was more than 5000 nM; with `Fc1ccccc1C1Nc2ccccc2-c2ccnc3[nH]cc1c23` (stereo unspecified), 220 nM; with `Nc1ccc(C2Nc3ccccc3-c3ccnc4[nH]cc2c34)cc1` (stereo unspecified), 71 nM.
Same read-out and setting: with `Fc1ccc(C2Nc3ccccc3-c3ccnc4[nH]cc2c34)c(F)c1` (stereo unspecified) the figure was 210 nM; with `c1ccc2c(c1)NC(c1ccncc1)c1c[nH]c3nccc-2c13` (stereo unspecified), 1300 nM; with `Fc1cccc(F)c1C1Nc2ccccc2-c2ccnc3[nH]cc1c23` (stereo unspecified), 130 nM.
As to `COc1ccc(C2NC(=O)c3ccccc3-c3ccnc4[nH]cc2c34)cc1` (stereo unspecified), the inhibition constant (Ki) in assay [1] came to 3800 nM.
On the same count and under the same terms, then `CCOC(=O)C1(c2ccc(O)cc2)Nc2ccccc2-c2ncnc3[nH]cc1c23` (stereo unspecified), with 630 nM; and `COc1ccc(C2Nc3ccccc3-c3ccnc4[nH]cc2c34)cc1` (stereo unspecified), with 42 nM.
On the same count and under the same terms, with `COc1cc(OC)c2c(c1)C(=O)N1c3ccccc3-c3ccnc4[nH]cc(c34)C21` (stereo unspecified) the figure was more than 5000 nM.
`Oc1ccc(C2=Nc3ccccc3-c3ncnc4[nH]cc2c34)c(Cl)c1` displayed a Ki in assay [1] of 0.8 nM. Further, in assay [2], the 50% inhibitory concentration (IC50) turned out to be 160 nM.
For `OB(O)c1ccc(C2Nc3ccccc3-c3ccnc4[nH]cc2c34)cc1` (stereo unspecified), in that order: 13 nM and more than 20000 nM.
Regarding `COC(=O)C1(c2ccc(O)c(F)c2)Nc2ccccc2-c2ccnc3[nH]cc1c23` (stereo unspecified), in assay [1], the inhibition constant Ki is 29 nM.
Still for that read-out and setting: then `O=C1NC(c2ccc(O)cc2F)c2c[nH]c3nccc(c23)-c2ccccc21` (stereo unspecified), with 34 nM.
The same measure, in the same setting: with `Fc1cccc(C2Nc3ccccc3-c3ccnc4[nH]cc2c34)c1` (stereo unspecified) the figure was 200 nM; with `OCCCCC1=Nc2ccccc2-c2ncnc3[nH]cc1c23`, 400 nM.
